Experimental data: PMC4767442 (Oncotarget, 2015)
Blank lines part the entries; values can stand above or below the compound they belong to.

Tests used:
[1] = test system: HL-60 human promyelocytic leukemia cell line; experiment: MTT proliferation/viability assay, HL-60; type: cell-based; details: 72 h/37°C, mean ± S.D.
Protocol: (§1) The MCF-7 human breast adenocarcinoma cell line was purchased from the European Collection of Cell Cultures (U.K.). The HL-60 human promyelocytic leukemia cell line, HCT116 human colorectal carcinoma cell line, H9c2 rat heart-derived myoblast cell line and 3T3 mouse embryo fibroblast line, were obtained from the American Type Culture Collection (VA, U.S.A.). Cells were cultured in Dulbecco's modified Eagle's medium (DMEM, Lonza, Switzerland) with or without (for MCF-7 cells only) phenol red, supplemented with 10% heat-inactivated fetal bovine serum (FBS; Lonza, Switzerland), 1% penicillin/streptomycin solution (Lonza, Switzerland) and 10 mM HEPES buffer (pH 7.0-7.6; Sigma-Aldrich, Germany). The HL-60 cell line was maintained in RPMI medium (Sigma-Aldrich, Germany) supplemented with 10% heat-inactivated FBS and 1% penicillin/streptomycin solution. All cell lines were cultured in 75 cm^2 tissue culture flasks (Switzerland) at 37°C in a humidified atmosphere of 5% CO2. Sub-confluent cells or, in the case of HL-60 cells, a cell suspension, were sub-cultured every 3-4 days.
(§2) Cells were seeded in 96-well plates for 24 h/37°C at a density of 5,000 (MCF-7), 10,000 (HL-60), 2,000 (HCT116) and 10,000 (3T3 and H9c2) cells/well. For 3T3 and H9c2 cells, the medium was changed to serum- and pyruvate-free DMEM 24 h prior to the experiments. Anti-proliferative and cytotoxicity effects of the compounds were studied at different concentrations after incubations for 72 h/37°C. Viabilities of cells were determined using MTT assays (Sigma-Aldrich, Germany) according to the manufacturer's instructions on a Tecan Infinite 200M plate reader (Tecan, Austria). The proliferation/viability of treated groups was expressed as a percentage of the untreated controls (100%).

[2] = test system: MCF-7 human breast adenocarcinoma cell line; experiment: MTT proliferation/viability assay, MCF-7; type: cell-based; details: MCF7, 72 h/37°C, mean ± S.D.
Protocol: as §1, §2

[3] = test system: HCT116 human colorectal carcinoma cell line; experiment: MTT proliferation/viability assay, HCT116; type: cell-based; details: HCT-116, 72 h/37°C, mean ± S.D.
Protocol: as §1, §2

[4] = test system: H9c2 rat heart-derived myoblast cell line; experiment: MTT proliferation/viability assay, H9c2; type: cell-based; details: 72 h/37°C, mean ± S.D., serum- and pyruvate-free DMEM
Protocol: as §1, §2

[5] = test system: 3T3 mouse embryo fibroblast line; experiment: MTT proliferation/viability assay, 3T3; type: cell-based; details: 72 h/37°C, mean ± S.D., serum- and pyruvate-free DMEM
Protocol: as §1, §2

[6] = test system: cancer cell lines (HL-60, MCF-7 and HCT116); experiment: MTT assay, cancer cell lines as a group; type: cell-based; details: Homo sapiens, HL-60, MCF-7, HCT116, 72 h/37°C, read-out: IC50 against all cancer cell lines
Protocol: as §1, §2

[7] = test system: non-cancer cell lines (H9c2 and 3T3); experiment: MTT assay, non-cancer cell lines as a group; type: cell-based; details: Rattus norvegicus, 72 h/37°C, read-out: IC50 towards non-cancer cells
Protocol: as §1, with “All cell lines were cultured in 75 cm^2 tissue culture flasks (Switzerland) at 37°C in a humidified atmosphere of 5% CO2. Sub-confluent cells or, in the case of HL-60 cells, a cell suspension, were sub-cultured every 3-4 days.” left out
Cells were seeded in 96-well plates for 24 h/37°C at a density of 5,000 (MCF-7), 10,000 (HL-60), 2,000 (HCT116) and 10,000 (3T3 and H9c2) cells/well. […] Viabilities of cells were determined using MTT assays (Sigma-Aldrich, Germany) according to the manufacturer's instructions on a Tecan Infinite 200M plate reader (Tecan, Austria). The proliferation/viability of treated groups was expressed as a percentage of the untreated controls (100%).

[8] = test system: cellular labile iron pools; experiment: Fluorimetric calcein-AM assay of intracellular iron chelation; type: cell-based; details: 10 μmol·L^−1, parent Dp44mT or DpC
Protocol: (§3) Iron chelation efficiency of the compounds at a concentration of 10 μmol·L^−1 was determined via 3 methods: (1) the calcein assay; (2) the ability of the ligands to induce ^59Fe mobilization from cells prelabeled with ^59Fe-transferrin; and (3) the efficacy of these agents to inhibit the uptake of ^59Fe from ^59Fe-transferrin [22, 38–40].
(§4) The fluorimetric calcein-AM assay was performed by established methods, as described previously. The Fe chelation efficiency of the metabolites in cells was expressed as a percentage of that of the parent chelator, Dp44mT or DpC (100%). For studies assessing the ability of these agents to induce ^59Fe mobilization and inhibit ^59Fe uptake from ^59Fe-transferrin by cells, human transferrin (Sigma-Aldrich, Germany) was labeled with ^59Fe (PerkinElmer, MA, USA) to generate ^59Fe-transferrin at a final specific activity of 500 pCi/pmol Fe, as previously described. The unbound ^59Fe was removed by exhaustive vacuum dialysis against a large excess of 0.15 M NaCl buffered to pH 7.4 with 1.4% NaHCO3 by standard methods.

MCF-7 cells [9] = experiment: 59Fe mobilization from cells prelabeled with 59Fe-transferrin; type: cell-based, human; details: MCF-7 prelabeled with 59Fe-transferrin, compounds 25 μmol·L^−1, 3 h/37°C
Protocol: as §3, §4
(§5) To examine the ability of the studied substances to mobilize ^59Fe from MCF-7 cells or inhibit ^59Fe uptake from ^59Fe-transferrin, established techniques were utilized. For ^59Fe mobilization studies, cells were preincubated with ^59Fe-transferrin (0.75 μmol·L^−1) for 3 h/37°C, washed 4 times at 4°C on ice, and then reincubated with control medium or control medium containing the compounds (25 μmol·L^−1) for 3 h/37°C. The release of ^59Fe from the cells into the overlying medium was then examined by collecting both the cells and overlying medium and assessing ^59Fe levels using a γ-counter. For studies examining the ability of the agents to inhibit ^59Fe uptake from ^59Fe-transferrin, cells were incubated for 3 h/37°C with ^59Fe-transferrin (0.75 μmol·L^−1) in the presence or absence of the agents (25 μmol·L^−1), and then washed 4 times at 4°C on ice. The internalization of ^59Fe by cells was then assessed by incubation for 30 min/4°C with the general protease, Pronase (1 mg/mL), utilizing standard techniques. The amount of internalized ^59Fe in the presence of the agents was expressed as a percentage of ^59Fe internalized by control cells incubated in the presence of control media alone.

MCF-7 cells [10] = experiment: Inhibition of internalized 59Fe uptake from 59Fe-transferrin; type: cell-based, human; details: MCF-7, compounds 25 μmol·L^−1, 3 h/37°C
Protocol: as §3, §4, §5

[11] = Long-term stability in plasma samples at -80°C; type: in vitro ADME, rat; details: for Long-term stability: plasma, -80°C, 7 days
Protocol: (§6) The UHPLC-MS/MS methods for quantitative assays were validated with respect to selectivity, linearity, precision, accuracy, stability, recovery, matrix effects and dilution integrity (see […]
Linearity was examined over the concentration ranges described in Supplementary Table 1 using a weighted (1/x 2) linear regression in GraphPad Prism 6 (v. 6.04, GraphPad Software […]
(§7) Stability was assessed at low, medium and high concentration levels. Long -term stability was assessed for plasma samples at -80°C over a period of 7 days (three aliquots per level; Supplementary Table 3). […]

[12] = Post-preparative stability in the autosampler at 10°C; type: physicochemical; details: for Post-preparative stability: autosampler 10°C, 24 h
Protocol: as §6
Supplementary Table 1-3). […]
as §7

[13] = design: method as in PMID 12203104; details: humans, single i.v. bolus; cited from earlier work
[14] = Pharmacokinetics and metabolism of Bp4eT in rats (literature); type: in vivo
[15] = cited from earlier work
[16] = high concentration level (2.105-3.115 µmol·L-1)
[17] = low concentration level (0.035-0.156 µmol·L-1)
[18] = medium concentration level (0.702-1.558 µmol·L-1)

IC50 [1]: 32.3 ± 3.85 µM
IC50 [2]: 19.5 ± 6.27 µM
IC50 [3]: 34.1 ± 6.35 µM
IC50 [6]: ≥ 19 µM
Long-term stability [11, 16]: 104.23%
Long-term stability [11, 17]: 87.83%
Long-term stability [11, 18]: 105.54%
decomposition on storage (in words) ([11]; up to 7 days stored at −80°C): No significant decomposition
decomposition on storage (in words) ([12]; 24 h storage in the autosampler at 10°C): No significant decomposition
Post-preparative stability [12, 16]: 99.55%
Post-preparative stability [12, 17]: 101.11%
Post-preparative stability [12, 18]: 93.89%
Structure (SMILES): CN(C=NN=C(c1ccccn1)c1ccccn1)C1CCCCC1 [DpC-A, N-cyclohexyl-N′-(di(pyridin-2-yl)methylene)-N-methylformohydrazonamide]
IC50 [4]: 257 ± 73.6 µM
IC50 [5]: 640 ± 65.9 µM
IC50 [7]: ≥ 257 µM
intracellular Fe chelation efficacy relative to parent chelator (100%) [8]: 2.5%
59Fe mobilization (in words) (MCF-7 cells [9]): comparable (p > 0.05) to the control medium
inhibition of 59Fe uptake from 59Fe-transferrin (in words) (MCF-7 cells [10]): loss of Fe chelation efficacy

Structure (SMILES): NC(=S)NN=Cc1ncccc1N [Triapine®, 3-aminopyridine-2-carboxaldehyde thiosemicarbazone]
half-life of elimination [13]: approximately 1 h

dose-corrected Cmax, fold higher than Dp44mT and DpC of the present study [14]: ~2 fold
Structure (SMILES): CCNC(=S)NN=C(c1ccccc1)c1ccccn1 [Bp4eT, 2-benzoylpyridine 4-ethyl-3-thiosemicarbazone]
AUC of the amidrazone metabolite relative to the parent drug ([15]; rat, in vivo): ≈ 20%
elimination half-life ([15]; rats): 1.4 h
